Where two headings read alike, the source gives them in different places.
Tests used:
[1] = target: T1, human recombinant adrenergic α1D receptor (Homo sapiens, UniProt P25100); experiment: Adrenergic α1D radioligand binding ([3H]Prozosin); design: Inhibition of ligand binding, Adren. alpha1D: concentration or dose not given beside the values; conditions: for Inhibition of ligand binding, Adren. alpha1D: percent inhibition of specific binding; for inhibition at 1 µM: compounds screened at 1 μM, read-out: Inhibition of ligand binding, Adren. alpha1D (percent inhibition of specific binding)
T1 construct: expressed in transfected cells; host or cells: HEK-293 cells
T1 sequence (P25100 1-572): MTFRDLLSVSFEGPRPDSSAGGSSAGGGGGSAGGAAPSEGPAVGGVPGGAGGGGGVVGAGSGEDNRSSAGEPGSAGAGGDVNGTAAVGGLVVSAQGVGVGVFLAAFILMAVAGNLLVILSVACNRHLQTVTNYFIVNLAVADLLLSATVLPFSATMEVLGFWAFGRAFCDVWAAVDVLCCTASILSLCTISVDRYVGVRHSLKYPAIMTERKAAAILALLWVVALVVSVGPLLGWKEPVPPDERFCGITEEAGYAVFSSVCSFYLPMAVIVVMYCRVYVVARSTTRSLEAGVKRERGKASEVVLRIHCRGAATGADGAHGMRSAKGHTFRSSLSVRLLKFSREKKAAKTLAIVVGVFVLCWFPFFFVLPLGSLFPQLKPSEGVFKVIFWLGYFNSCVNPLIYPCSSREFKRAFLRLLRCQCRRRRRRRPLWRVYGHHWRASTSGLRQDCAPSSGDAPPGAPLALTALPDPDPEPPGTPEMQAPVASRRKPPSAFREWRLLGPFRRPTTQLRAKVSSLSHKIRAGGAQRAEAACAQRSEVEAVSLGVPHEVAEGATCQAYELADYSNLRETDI
Method: Compounds of invention were incubated with 0.6 nM [^3H]Prozosin for 60 minutes at 25° C. Non-specific binding was estimated in the presence of 10 μM phentolamine. Receptor proteins were filtered and washed, the filters were then counted to determine [^3H]Prozosin specifically bound. […] Biochemical assay results are presented as the percent inhibition of specific binding in Table 6.

[2] = target: T2, Serotonin (5-Hydroxytryptamine) 5-HT7 (Homo sapiens, UniProt P34969); experiment: Serotonin 5-HT7 radioligand binding ([3H]LSD); design: Inhibition of ligand binding, Ser. 5-HT7: concentration or dose not given beside the values; conditions: percent inhibition of specific binding
T2 construct: expressed in transfected cells; host or cells: CHO cells
Method: Lysergic acid diethylamide (LSD) for 2 hours at 25° C. […] Receptor proteins were filtered and washed, the filters were then counted to determine [^3H]LSD specifically bound. […] Biochemical assay results are presented as the percent inhibition of specific binding in Table 6.

[3] = target: T3, human recombinant histamine H2 receptor (Homo sapiens, UniProt P25021); experiment: Histamine H2 radioligand binding ([125I]Aminopotentidine); conditions: for inhibition at 0.3 µM: 0.3 μM compound
T3 construct: expressed in transfected cells; host or cells: CHO-K1 cells
Outline: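 Test compounds were assessed for their ability to displace radioligand from the human recombinant histamine H2 receptor. Non-specific binding was determined in the presence of 3 μM Tiotidine, and results were expressed as percent inhibition of specific binding, with 1% DMSO serving as the vehicle.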

[4] = target: T4, human recombinant serotonin (5-Hydroxytryptamine) 5-HT2C receptor (Homo sapiens, UniProt P28335); experiment: Serotonin 5-HT2C radioligand binding ([3H]Mesulergine); design: Inhibition of ligand binding, Ser. 5-HT2C: concentration or dose not given beside the values; conditions: for Inhibition of ligand binding, Ser. 5-HT2C: percent inhibition of specific binding; for inhibition at 1 µM: compounds screened at 1 μM, read-out: Inhibition of ligand binding, Ser. 5-HT2C (percent inhibition of specific binding)
T4 construct: expressed in transfected cells; host or cells: CHO-K1 cells
T4 sequence (P28335 33-458): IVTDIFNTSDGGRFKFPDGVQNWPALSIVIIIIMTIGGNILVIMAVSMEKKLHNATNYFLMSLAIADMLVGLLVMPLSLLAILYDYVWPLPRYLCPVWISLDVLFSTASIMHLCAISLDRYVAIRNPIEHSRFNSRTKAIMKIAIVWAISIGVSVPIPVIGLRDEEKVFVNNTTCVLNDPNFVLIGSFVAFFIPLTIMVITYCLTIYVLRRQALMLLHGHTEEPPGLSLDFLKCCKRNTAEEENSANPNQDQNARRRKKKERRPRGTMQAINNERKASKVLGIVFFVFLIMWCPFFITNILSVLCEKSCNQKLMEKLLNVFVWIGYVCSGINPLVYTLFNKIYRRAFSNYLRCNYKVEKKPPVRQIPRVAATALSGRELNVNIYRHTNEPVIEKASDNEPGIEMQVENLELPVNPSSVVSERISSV
Method: (§1) Compounds of the invention were incubated with 1 nM [^3H]Mesulergine for 60 minutes at 25° C. Non-specific binding was estimated in the presence of 1 μM Mianserin. Receptor proteins were filtered and washed, the filters were then counted to determine [^3H]Mesulergine specifically bound. […] Biochemical assay results are presented as the percent inhibition of specific binding in Table 6.

[5] = target: T5, human recombinant serotonin (5-Hydroxytryptamine) 5-HT2A receptor (Homo sapiens, UniProt P28223); experiment: Serotonin 5-HT2A radioligand binding ([3H]Ketanserin); conditions: for Inhibition of ligand binding, Ser. 5-HT2A: percent inhibition of specific binding; for inhibition at 1 µM: read-out: Inhibition of ligand binding, Ser. 5-HT2A (percent inhibition of specific binding)
T5 construct: expressed in transfected cells; host or cells: CHO-K1 cells
Method: as §1, with “with 0.5” for “with 1”, “nM [^3H]Ketanserin” for “nM [^3H]Mesulergine”, “determine [^3H]Ketanserin” for “determine [^3H]Mesulergine”

[6] = 0.1 nM [125I]Aminopotentidine, read-out: Histamine Binding H2, percent inhibition of specific binding
[7] = 1 μM compound, 0.1 nM [125I]Aminopotentidine, read-out: Histamine Binding H2, percent inhibition of specific binding
[8] = percent inhibition of specific binding, screened at 1 μM, read-out: Inhibition of ligand binding, Hist. H2
[9] = compounds screened at 1 μM, read-out: Inhibition of ligand binding, Hist. H2 (percent inhibition of specific binding)

T5 sequence (P28223 whole entry): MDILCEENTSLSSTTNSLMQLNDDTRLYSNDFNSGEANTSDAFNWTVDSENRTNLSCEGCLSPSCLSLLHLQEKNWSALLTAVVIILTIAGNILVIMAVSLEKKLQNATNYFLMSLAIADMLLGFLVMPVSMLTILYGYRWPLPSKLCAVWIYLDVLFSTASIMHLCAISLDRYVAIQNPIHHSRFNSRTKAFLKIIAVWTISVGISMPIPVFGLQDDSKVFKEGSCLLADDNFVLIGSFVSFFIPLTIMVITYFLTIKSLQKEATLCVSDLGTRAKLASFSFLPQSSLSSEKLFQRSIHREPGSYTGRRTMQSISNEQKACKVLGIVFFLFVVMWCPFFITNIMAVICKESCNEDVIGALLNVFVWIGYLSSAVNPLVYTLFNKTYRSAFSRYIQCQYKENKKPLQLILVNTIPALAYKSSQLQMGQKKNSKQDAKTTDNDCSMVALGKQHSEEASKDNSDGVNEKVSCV
T3 sequence (P25021 whole entry): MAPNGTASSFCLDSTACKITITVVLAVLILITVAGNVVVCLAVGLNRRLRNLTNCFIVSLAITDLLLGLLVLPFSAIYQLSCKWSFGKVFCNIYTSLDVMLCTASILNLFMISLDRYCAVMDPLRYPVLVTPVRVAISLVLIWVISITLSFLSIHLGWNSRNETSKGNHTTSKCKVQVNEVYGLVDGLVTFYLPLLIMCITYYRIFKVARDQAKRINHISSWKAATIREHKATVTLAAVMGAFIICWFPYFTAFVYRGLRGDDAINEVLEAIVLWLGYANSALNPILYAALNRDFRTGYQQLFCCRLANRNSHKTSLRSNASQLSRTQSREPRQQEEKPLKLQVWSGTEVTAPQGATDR
T2 sequence (P34969 whole entry): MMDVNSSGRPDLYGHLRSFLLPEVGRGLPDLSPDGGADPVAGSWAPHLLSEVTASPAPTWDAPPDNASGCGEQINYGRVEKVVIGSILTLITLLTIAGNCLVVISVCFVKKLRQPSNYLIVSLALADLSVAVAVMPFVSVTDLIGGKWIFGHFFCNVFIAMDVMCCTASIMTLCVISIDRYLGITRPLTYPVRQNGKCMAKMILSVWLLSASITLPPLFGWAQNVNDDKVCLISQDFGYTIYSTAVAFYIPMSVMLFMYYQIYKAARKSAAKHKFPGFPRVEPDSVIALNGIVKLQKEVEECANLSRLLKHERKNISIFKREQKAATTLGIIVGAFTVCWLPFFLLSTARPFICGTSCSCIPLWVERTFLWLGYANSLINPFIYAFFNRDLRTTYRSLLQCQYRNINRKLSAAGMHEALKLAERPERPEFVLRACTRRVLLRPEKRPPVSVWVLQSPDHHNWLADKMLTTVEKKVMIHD

Structure (SMILES)	Inhibition of ligand binding, Adren. alpha1D [1] [%]	Inhibition of ligand binding, Ser. 5-HT7 [2] [%]	inhibition at 0.1 µM ([3]; 0.1 μM compound, 0.1 nM [125I]Aminopotentidine, read-out: Histamine Binding H2, percent inhibition of specific binding) [%]	inhibition at 0.3 µM [3, 6] [%]	inhibition at 1 µM [3, 7] [%]	inhibition at 1 µM [3, 8] [%]	Inhibition of ligand binding, Ser. 5-HT2C [4] [%]	Inhibition of ligand binding, Ser. 5-HT2A [5] [%]	inhibition at 1 µM [1] [%]	inhibition at 1 µM [3, 9] [%]	inhibition at 1 µM [4] [%]	inhibition at 1 µM [5] [%]
Cc1ccc(CCn2c3c(c4ccccc42)CN(C)CC3)cc1 [Compound 1, 2,3,4,5-tetrahydro-2-methyl-5-(4-methylphenethyl)-1H-pyrido[4,3-b]indole]	76	98	33	57	82	82	95	95	–	–	–	–
CCN1CCc2c(c3ccccc3n2CCc2ccc(C)cc2)C1 [Compound 3, 2-ethyl-2,3,4,5-tetrahydro-5-(4-methylphenethyl)-1H-pyrido[4,3-b]indole]	48	81	–	–	51	51	82	98	–	–	–	–
CCN1CCc2c(c3ccccc3n2CCc2ccccc2)C1 [Compound 4, 2-ethyl-2,3,4,5-tetrahydro-5-phenethyl-1H-pyrido[4,3-b]indole]	56	88	–	34	51	51	94	102	–	–	–	–
CCN1CCc2c(c3ccccc3n2CCc2ccncc2)C1 [Compound 5]	21	37	–	–	2	2	9	55	–	–	–	–
CCN1CCc2c(c3ccccc3n2CCc2ccccn2)C1 [Compound 6]	6	39	–	–	-3	-3	34	74	–	–	–	–
CN1CCc2c(c3ccccc3n2CCc2ccncc2)C1 [Compound 10, 2,3,4,5-tetrahydro-2-methyl-5-(2-(pyridin-4-yl)ethyl)-1H-pyrido[4,3-b]indole]	19	73	–	–	12	12	53	69	–	–	–	–
CCN1CCc2c(c3ccccc3n2Cc2ccccc2)C1 [Compound 16, 5-benzyl-2-ethyl-2,3,4,5-tetrahydro-1H-pyrido[4,3-b]indole]	12	14	–	–	3	3	5	14	–	–	–	–
Cc1ccc(Cn2c3c(c4ccccc42)CN(C)CC3)cn1 [Compound 17, 2,3,4,5-tetrahydro-2-methyl-5-((6-methylpyridin-3-yl)methyl)-1H-pyrido[4,3-b]indole]	−7	7	–	–	-2	-2	8	−7	–	–	–	–
CCOC(=O)N1CCc2c(c3cc(Br)ccc3n2CCc2ccc(C)nc2)C1 [Compound 18, ethyl 8-bromo-3,4-dihydro-5-(2-(6-methylpyridin-3-yl)ethyl)-1H-pyrido[4,3-b]indole-2(5H)-carboxylate]	−10	10	–	–	1	1	−14	5	–	–	–	–
CCOC(=O)N1CCc2c(c3cc(-c4cccnc4)ccc3n2CCc2ccc(C)nc2)C1 [Compound 19, ethyl 3,4-dihydro-5-(2-(6-methylpyridin-3-yl)ethyl)-8-(pyridin-3-yl)-1H-pyrido[4,3-b]indole-2(5H)-carboxylate]	−6	12	–	–	10	10	−17	2	–	–	–	–
Cc1ccc2c(c1)c1c(n2CCc2ccncc2)CCN(C)C1 [Compound 22, 2,3,4,5-tetrahydro-2,8-dimethyl-5-(2-(pyridin-4-yl)ethyl)-1H-pyrido[4,3-b]indole]	83	99	–	29	49	53	87	81	–	–	–	–
CCN1CCc2c(c3cc(C)ccc3n2CCc2ccccn2)C1 [Compound 23, 2-ethyl-2,3,4,5-tetrahydro-8-methyl-5-(2-(pyridin-2-yl)ethyl)-1H-pyrido[4,3-b]indole]	61	94	–	–	28	28	53	78	–	–	–	–
CN1CCc2c(c3cc(I)ccc3n2CC(=O)N2CCCCC2)C1 [Compound 486, 2-(1,2,3,4-tetrahydro-8-iodo-2-methylpyrido[4,3-b]indol-5-yl)-1-(piperidin-1-yl)ethanone]	–	–	–	–	–	–	–	–	22	11	31	19
Cc1ccc(CCn2c3c(c4cc(Br)ccc42)CN(C)CC3)cn1 [Compound 487, 8-bromo-2-methyl-5-(2-(6-methylpyridin-3-yl)ethyl)-2,3,4,5-tetrahydro-1H-pyrido[4,3-b]indole]	–	–	–	–	–	–	–	–	90	80	84	87
CN1CCc2c(c3cc(Br)ccc3n2CC(=O)N2CCCCC2)C1 [Compound 516, 2-(8-bromo-2-methyl-3,4-dihydro-1H-pyrido[4,3-b]indol-5(2H)-yl)-1-(piperidin-1-yl)ethanone]	–	–	–	–	–	–	–	–	26	12	58	6

Reference: patent publication US9096591B2, “Tetracyclic compounds” (Medivation Technologies, Inc., priority 2007, dated 2015)
